Reference: publication PMC10709440, “High-throughput ligand profile characterization in novel cell lines expressing seven heterologous insect olfactory receptors for the detection of volatile plant biomarkers” (Scientific Reports, 2023)

Legend:
Drosophila OR47a = target: T1, Drosophila OR47a (Drosophila melanogaster, UniProt P81921); assay: Calcium ion fluorescence (GCaMP6) assay, OR47a stable HEK293 cell line; type: cell-based; details: for OR47a response (VUAA1-normalized) at 1 μM / OR47a response (VUAA1-normalized) at 10 μM / OR47a response (VUAA1-normalized) at 100 μM / Average response: OR47a cell line; for OR47a response (VUAA1-normalized) at 1 μM: VOC concentration 1 μM; for OR47a response (VUAA1-normalized) at 10 μM: VOC concentration 10 μM; for OR47a response (VUAA1-normalized) at 100 μM: VOC concentration 100 μM; for Average response: mean of biological replicates
T1 construct: expressed in transfected cells
T1 sequence (P81921 1-385): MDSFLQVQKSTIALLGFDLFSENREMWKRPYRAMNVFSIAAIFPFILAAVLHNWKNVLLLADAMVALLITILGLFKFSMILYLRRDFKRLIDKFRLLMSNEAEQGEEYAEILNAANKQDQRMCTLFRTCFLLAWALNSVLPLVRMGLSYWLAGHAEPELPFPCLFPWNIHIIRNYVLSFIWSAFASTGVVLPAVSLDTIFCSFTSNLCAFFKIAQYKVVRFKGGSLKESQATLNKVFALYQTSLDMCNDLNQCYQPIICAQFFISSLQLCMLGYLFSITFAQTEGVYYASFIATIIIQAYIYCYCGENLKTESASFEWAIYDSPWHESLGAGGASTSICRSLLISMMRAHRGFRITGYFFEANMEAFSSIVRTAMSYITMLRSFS
T1 sequence (Q9VNB5 1-486 partner): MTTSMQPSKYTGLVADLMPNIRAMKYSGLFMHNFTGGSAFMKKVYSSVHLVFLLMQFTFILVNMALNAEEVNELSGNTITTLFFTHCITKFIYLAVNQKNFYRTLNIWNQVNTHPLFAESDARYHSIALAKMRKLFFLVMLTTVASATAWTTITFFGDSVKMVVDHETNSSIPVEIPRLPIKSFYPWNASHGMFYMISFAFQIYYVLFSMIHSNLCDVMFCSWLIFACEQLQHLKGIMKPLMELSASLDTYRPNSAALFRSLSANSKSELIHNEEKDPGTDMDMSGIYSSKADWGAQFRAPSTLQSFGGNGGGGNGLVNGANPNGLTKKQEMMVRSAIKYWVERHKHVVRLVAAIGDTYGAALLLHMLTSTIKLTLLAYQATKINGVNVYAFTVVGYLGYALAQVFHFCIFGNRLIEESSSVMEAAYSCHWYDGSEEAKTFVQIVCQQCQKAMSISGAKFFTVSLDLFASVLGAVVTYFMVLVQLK
Outline: (§1)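 Responses are VUAA1-normalized ΔF: each VOC-evoked calcium signal, (FMAX−F0)/F0 over 30 s after injection, divided by the same line's mean 50 µM VUAA1 response. Cells were doxycycline-induced HEK293 with GCaMP6 and the cognate Drosophila OR, in HEPES buffer pH 7.3; ligands tested 0.01–100 μM.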

Drosophila OR71a = target: T2, Drosophila OR71a (Drosophila melanogaster, UniProt Q9VUK5); assay: Calcium ion fluorescence (GCaMP6) assay, OR71a stable HEK293 cell line; type: cell-based; details: for OR71a response (VUAA1-normalized) at 1 μM / OR71a response (VUAA1-normalized) at 10 μM / OR71a response (VUAA1-normalized) at 100 μM / Average response: OR71a cell line; for OR71a response (VUAA1-normalized) at 1 μM: VOC concentration 1 μM; for OR71a response (VUAA1-normalized) at 10 μM: VOC concentration 10 μM; for OR71a response (VUAA1-normalized) at 100 μM: VOC concentration 100 μM; for Average response: VUAA1-normalized response, mean of biological replicates
T2 construct: expressed in transfected cells
T2 sequence (Q9VUK5 1-378): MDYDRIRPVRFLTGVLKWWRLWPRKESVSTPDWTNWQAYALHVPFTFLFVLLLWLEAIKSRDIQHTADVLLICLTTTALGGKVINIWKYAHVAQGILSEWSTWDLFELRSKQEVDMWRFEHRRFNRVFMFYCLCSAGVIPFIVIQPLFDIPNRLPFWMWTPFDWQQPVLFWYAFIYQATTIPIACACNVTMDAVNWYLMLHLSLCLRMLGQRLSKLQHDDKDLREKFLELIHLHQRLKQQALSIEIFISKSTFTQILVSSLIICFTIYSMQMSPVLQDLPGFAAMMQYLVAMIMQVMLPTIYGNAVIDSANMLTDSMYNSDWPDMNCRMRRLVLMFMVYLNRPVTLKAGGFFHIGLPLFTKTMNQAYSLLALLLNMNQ
T2 sequence (Q9VNB5 1-486 partner): T1 sequence (Q9VNB5 1-486 partner)
Outline: as §1

[1] = HEK293, read-out: OR47a Average response (VUAA1-normalized)
[2] = ligand concentration 1 (unit not given), threshold 0.05, below shown as 0
[3] = ligand concentration 10 (unit not given), threshold 0.05, below shown as 0
[4] = ligand concentration 100 (unit not given), threshold 0.05, below shown as 0
[5] = ligand concentration 1 (unit not given), 0.05 threshold, values below shown as 0
[6] = ligand concentration 10 (unit not given), 0.05 threshold, values below shown as 0
[7] = ligand concentration 100 (unit not given), 0.05 threshold, values below shown as 0

`CCCOC(C)=O` [propyl acetate] was tested, and the activation at 1 µM (Drosophila OR47a; [1]) was 0%, the activation at 10 µM (Drosophila OR47a; [1]) was 9% and the activation at 100 µM (Drosophila OR47a; [1]) was 33%. The “OR47a response (VUAA1-normalized) at 1 μM” value (Drosophila OR47a) was 0.00, the “OR47a response (VUAA1-normalized) at 10 μM” value (Drosophila OR47a) was 0.09 and the “OR47a response (VUAA1-normalized) at 100 μM” value (Drosophila OR47a) was 0.33. It also gave an Average response (Drosophila OR47a; odorant cc. 1 µM) of 0.00, an Average response (Drosophila OR47a; odorant cc. 10 µM) of 0.09 and an Average response (Drosophila OR47a; odorant cc. 100 µM) of 0.33. The “DF norm AVERAGE OR47a” value (Drosophila OR47a; [2]) was 0, the “DF norm AVERAGE OR47a” value (Drosophila OR47a; [3]) was 0.0896 and the “DF norm AVERAGE OR47a” value (Drosophila OR47a; [4]) was 0.3345. For the same compound, the “OR71a response (VUAA1-normalized) at 1 μM” value (Drosophila OR71a) was 0.00, the “OR71a response (VUAA1-normalized) at 10 μM” value (Drosophila OR71a) was 0.00 and the “OR71a response (VUAA1-normalized) at 100 μM” value (Drosophila OR71a) was 0.00. The Average response (Drosophila OR71a; cc. 1 µM) was 0.0434, the Average response (Drosophila OR71a; cc. 10 µM) was 0.025 and the Average response (Drosophila OR71a; cc. 100 µM) was 0.00. For the same compound, the “DF norm AVERAGE OR71a” value (Drosophila OR71a; [2]) was 0, the “DF norm AVERAGE OR71a” value (Drosophila OR71a; [3]) was 0 and the “DF norm AVERAGE OR71a” value (Drosophila OR71a; [4]) was 0.

For `C=C1CCC2(C(C)C)CC12` (stereo not drawn) [sabinene], the “OR47a response (VUAA1-normalized) at 1 μM” value (Drosophila OR47a) was 0.00, the “OR47a response (VUAA1-normalized) at 10 μM” value (Drosophila OR47a) was 0.00 and the “OR47a response (VUAA1-normalized) at 100 μM” value (Drosophila OR47a) was 0.00. It also gave an Average response (Drosophila OR47a; odorant cc. 1 µM) of 0.00, an Average response (Drosophila OR47a; odorant cc. 10 µM) of 0.00 and an Average response (Drosophila OR47a; odorant cc. 100 µM) of 0.00. For the same compound, the “DF norm AVERAGE OR47a” value (Drosophila OR47a; [2]) was 0, the “DF norm AVERAGE OR47a” value (Drosophila OR47a; [3]) was 0 and the “DF norm AVERAGE OR47a” value (Drosophila OR47a; [4]) was 0. For the same compound, the “OR71a response (VUAA1-normalized) at 1 μM” value (Drosophila OR71a) was 0.00, the “OR71a response (VUAA1-normalized) at 10 μM” value (Drosophila OR71a) was 0.00 and the “OR71a response (VUAA1-normalized) at 100 μM” value (Drosophila OR71a) was 0.00. For the same compound, the Average response (Drosophila OR71a; cc. 1 µM) was 0.00, the Average response (Drosophila OR71a; cc. 10 µM) was 0.00 and the Average response (Drosophila OR71a; cc. 100 µM) was 0.0235. The “DF norm AVERAGE OR71a” value (Drosophila OR71a; [2]) was 0, the “DF norm AVERAGE OR71a” value (Drosophila OR71a; [3]) was 0 and the “DF norm AVERAGE OR71a” value (Drosophila OR71a; [4]) was 0.

`C=Cc1ccccc1` [styrene] was tested, and the “OR47a response (VUAA1-normalized) at 1 μM” value (Drosophila OR47a) was 0.00, the “OR47a response (VUAA1-normalized) at 10 μM” value (Drosophila OR47a) was 0.00 and the “OR47a response (VUAA1-normalized) at 100 μM” value (Drosophila OR47a) was 0.00. The Average response (Drosophila OR47a; odorant cc. 1 µM) was 0.0246, the Average response (Drosophila OR47a; odorant cc. 10 µM) was 0.00 and the Average response (Drosophila OR47a; odorant cc. 100 µM) was 0.0286. The “DF norm AVERAGE OR47a” value (Drosophila OR47a; [5]) was 0, the “DF norm AVERAGE OR47a” value (Drosophila OR47a; [6]) was 0 and the “DF norm AVERAGE OR47a” value (Drosophila OR47a; [7]) was 0. For the same compound, the “OR71a response (VUAA1-normalized) at 1 μM” value (Drosophila OR71a) was 0.00, the “OR71a response (VUAA1-normalized) at 10 μM” value (Drosophila OR71a) was 0.00 and the “OR71a response (VUAA1-normalized) at 100 μM” value (Drosophila OR71a) was 0.00. The Average response (Drosophila OR71a; cc. 1 µM) was 0.027, the Average response (Drosophila OR71a; cc. 10 µM) was 0.0458 and the Average response (Drosophila OR71a; cc. 100 µM) was 0.00724. For the same compound, the “DF norm AVERAGE OR71a” value (Drosophila OR71a; [5]) was 0, the “DF norm AVERAGE OR71a” value (Drosophila OR71a; [6]) was 0 and the “DF norm AVERAGE OR71a” value (Drosophila OR71a; [7]) was 0.
